Results: patent EP0248954B1, “Process for reducing the amount of DDT-related impurities in 1,1-bis(chlorophenyl)-2,2,2-trichloro-ethanol” (ROHM AND HAAS COMPANY, priority 1986, dated 1987)

Assays:
Type in all cases: physicochemical
[1] = Single-stage extraction: dicofol technical in aqueous ethanol of various concentrations partitioned with heptane; settings: 30% dicofol technical solution, 50 grams, 40 grams heptane, 23°C
Protocol: Alternative solvent systems were evaluated. The distribution coefficients were determined by partitioning dicofol technical.
In Table VII, n-heptane was used as the extractant and different raffinate phase solvents were evaluated. In Table VIII, ethanol was used as the raffinate solvent and different extracting solvents were evaluated. In Table IX, n-heptane was used as the extractant and ethanol at different aqueous concentrations was used as the raffinate solvent. In the experiments set forth in Table IX, 30% dicofol technical solution (in the raffinate layer) was used and 50 grams of this solution was partitioned with 40 grams of the extracting solvent. In Table X, methanol was used as the raffinate solvent and different extracting solvents were evaluated. And in Table XI, using n-heptane as the extracting solvent and aqueous methanol as the raffinate solvent, the partition coefficients were determined as a function of temperature and concentration of dicofol.

[2] = Single-stage extraction: dicofol technical in aqueous methanols of various water content contacted with n-heptane; settings: 50g of 33% solution of dicofol technical, 40 g n-heptane, 23°C
Protocol: The effect on distribution coefficients and selectivities of the amount of water in the methanol was determined. […] All distribution coefficients rise as the percentage of water increases. The selectivities rise initially but then begin to decrease at water levels higher than a maximum range. Importantly, if the water in the methanol is omitted, the addition of practical concentrations of dicofol technical causes the phases to coalesce.

[3] = Single-stage extraction: partitioning of dicofol technical between n-heptane and 90% aqueous methanol
Protocol: A 50g sample of the desired dicofol solution was taken in a stoppered 100 ml graduated cylinder. […] They were then shaken well for two minutes. The samples were placed in an ice-water bath for 30 minutes. After the cooling period all samples were again shaken for 2 minutes. The samples were returned to the bath and allowed to equilibrate for 30 minutes. The samples were then removed from the bath and volumes recorded (Table I - Columns 2 and 3). The layers were then separated and each layer weighed (Columns 4 and 5). The separated layers were concentrated under vacuum (70°C, 1 mm Hg), weighed (columns 6 and 7) and analyzed (Table II).
In subsequent experiments, the partitioning of dicofol technical between n-heptane and 90% aqueous methanol was also evaluated at 23°C. The combined results from the 0°C and 23°C experiments are presented in Table IV where the results are expressed as distribution coefficients for dicofol and the two principal DDTr's found in dicofol technical, o,p'-DDE and p,p'-Cl-DDT. In all cases, the extractability of DDTr's exceeded that of dicofol by a significant margin.

[4] = dicofol technical spiked with 0.25 Wt % p,p'-DDD and separately p,p'-DDT, 50g of 33% solution in 90% aqueous methanol, 40g n-heptane, 23°C
[5] = dicofol technical spiked with 0.72 Wt % p,p'-DDD and separately p,p'-DDT, 50g of 33% solution in 90% aqueous methanol, 40g n-heptane, 23°C
[6] = dicofol technical spiked with 1.80 Wt % p,p'-DDD and separately p,p'-DDT, 50g of 33% solution in 90% aqueous methanol, 40g n-heptane, 23°C
[7] = heptane layer / raffinate layer, 50 g of dicofol solution conc. 8.4 in 90% aqueous methanol, 20 g heptane, 0 °C
[8] = heptane layer / raffinate layer, 50 g of dicofol solution conc. 10 in 90% aqueous methanol, 40 g heptane, 23 °C
[9] = heptane layer / raffinate layer, 50 g of dicofol solution conc. 16.7 in 90% aqueous methanol, 20 g heptane, 0 °C
[10] = heptane layer / raffinate layer, 50 g of dicofol solution conc. 16.7 in 90% aqueous methanol, 20 g heptane, 23 °C
[11] = heptane layer / raffinate layer, 50 g of dicofol solution conc. 20 in 90% aqueous methanol, 40 g heptane, 23 °C
[12] = heptane layer / raffinate layer, 50 g of dicofol solution conc. 30 in 90% aqueous methanol, 40 g heptane, 23 °C
[13] = heptane layer / raffinate layer, 50 g of dicofol solution conc. 33 in 90% aqueous methanol, 20 g heptane, 0 °C
[14] = heptane layer / raffinate layer, 50 g of dicofol solution conc. 40 in 90% aqueous methanol, 40 g heptane, 23 °C
[15] = heptane layer / raffinate layer, 50 g of dicofol solution conc. 50 in 90% aqueous methanol, 20 g heptane, 0 °C
[16] = heptane layer / raffinate layer, 50 g of dicofol solution conc. 50 in 90% aqueous methanol, 40 g heptane, 23 °C
[17] = ratio of DDTr D.C. to that of dicofol, dicofol solution conc. 8.4 in 90% aqueous methanol, 20 g heptane, 0 °C
[18] = ratio of DDTr D.C. to that of dicofol, dicofol solution conc. 10 in 90% aqueous methanol, 40 g heptane, 23 °C
[19] = ratio of DDTr D.C. to that of dicofol, dicofol solution conc. 16.7 in 90% aqueous methanol, 20 g heptane, 0 °C
[20] = ratio of DDTr D.C. to that of dicofol, dicofol solution conc. 16.7 in 90% aqueous methanol, 20 g heptane, 23 °C
[21] = ratio of DDTr D.C. to that of dicofol, dicofol solution conc. 20 in 90% aqueous methanol, 40 g heptane, 23 °C
[22] = ratio of DDTr D.C. to that of dicofol, dicofol solution conc. 30 in 90% aqueous methanol, 40 g heptane, 23 °C
[23] = ratio of DDTr D.C. to that of dicofol, dicofol solution conc. 33 in 90% aqueous methanol, 20 g heptane, 0 °C
[24] = ratio of DDTr D.C. to that of dicofol, dicofol solution conc. 40 in 90% aqueous methanol, 40 g heptane, 23 °C
[25] = ratio of DDTr D.C. to that of dicofol, dicofol solution conc. 50 in 90% aqueous methanol, 20 g heptane, 0 °C
[26] = ratio of DDTr D.C. to that of dicofol, dicofol solution conc. 50 in 90% aqueous methanol, 40 g heptane, 23 °C

Row | Structure (SMILES) | Distribution coefficient (D.C.) ([1]; 85% aqueous ethanol) | Selectivity (Sel.) ([1]; 85% aqueous ethanol) | Distribution coefficient (D.C.) ([1]; 87% aqueous ethanol) | Selectivity (Sel.) ([1]; 87% aqueous ethanol) | Distribution coefficient (D.C.) ([1]; 90% aqueous ethanol) | Selectivity (Sel.) ([1]; 90% aqueous ethanol) | Distribution coefficient (D.C.) ([2]; 4 % H₂O in Aq. MeOH) | Selectivity (Sel.) ([2]; 4 % H₂O in Aq. MeOH) | Distribution coefficient (D.C.) ([2]; 8 % H₂O in Aq. MeOH) | Selectivity (Sel.) ([2]; 8 % H₂O in Aq. MeOH) | Distribution coefficient (D.C.) ([2]; 12 % H₂O in Aq. MeOH) | Selectivity (Sel.) ([2]; 12 % H₂O in Aq. MeOH) | Distribution coefficient (D.C.) ([2]; 16 % H₂O in Aq. MeOH) | Selectivity (Sel.) ([2]; 16 % H₂O in Aq. MeOH) | Distribution coefficient (D.C.) [3, 4] | Selectivity (Sel.) [3, 4] | Distribution coefficient (D.C.) [3, 5] | Selectivity (Sel.) [3, 5] | Distribution coefficient (D.C.) [3, 6] | Selectivity (Sel.) [3, 6] | other results
1 | Clc1ccc(C(Cl)(c2ccc(Cl)cc2)C(Cl)(Cl)Cl)cc1 [p,p'-Cl-DDT, 1,1-bis-(4-chlorophenyl)-1,2,2,2-tetrachloroethane] | 1.65 | 2.22 | 1.48 | 2.33 | 0.91 | 1.20 | 1.9 | 7.0 | 2.9 | 10.1 | 4.6 | 12.2 | 6.8 | 11.4 | 3.7 | 11.8 | 3.8 | 11.4 | 3.8 | 10.8 | Distribution coefficient (D.C.) [3, 7]: 9.1; Distribution coefficient (D.C.) [3, 8]: 7.5; Distribution coefficient (D.C.) [3, 9]: 4.4; Distribution coefficient (D.C.) [3, 10]: 4.1; Distribution coefficient (D.C.) [3, 11]: 5.3; Distribution coefficient (D.C.) [3, 12]: 4.0; Distribution coefficient (D.C.) [3, 13]: 2.6; Distribution coefficient (D.C.) [3, 14]: 2.8; Distribution coefficient (D.C.) [3, 15]: 1.5; Distribution coefficient (D.C.) [3, 16]: 2.1; Selectivity (Sel.) [3, 17]: 23.3; Selectivity (Sel.) [3, 18]: 23.4; Selectivity (Sel.) [3, 19]: 22.4; Selectivity (Sel.) [3, 20]: 12.2; Selectivity (Sel.) [3, 21]: 16.8; Selectivity (Sel.) [3, 22]: 13.1; Selectivity (Sel.) [3, 23]: 14.9; Selectivity (Sel.) [3, 24]: 8.6; Selectivity (Sel.) [3, 25]: 9.4; Selectivity (Sel.) [3, 26]: 6.8
2 | Clc1ccc(C(c2ccc(Cl)cc2)C(Cl)Cl)cc1 [p,p'-DDD, 1,1-bis-(4-chlorophenyl)-2,2-dichloroethane] |  |  |  |  |  |  |  |  |  |  |  |  |  |  | 0.66 | 2.1 | 0.71 | 2.1 | 0.79 | 2.2 | 
3 | Clc1ccc(C(c2ccc(Cl)cc2)C(Cl)(Cl)Cl)cc1 [p,p'-DDT, 1,1-bis-(4-chlorophenyl)-2,2,2-trichloroethane] |  |  |  |  |  |  |  |  |  |  |  |  |  |  | 1.9 | 5.9 | 1.9 | 5.6 | 2.1 | 6.0 | 
4 | ClC(Cl)=C(c1ccc(Cl)cc1)c1ccccc1Cl [o,p'-DDE] | 2.06 | 2.78 | 1.28 | 2.01 | 1.08 | 1.42 | 1.5 | 5.7 | 2.2 | 7.7 | 3.1 | 8.3 | 3.6 | 6.1 | 2.4 | 7.6 | 2.4 | 7.2 | 2.4 | 6.8 | Distribution coefficient (D.C.) [3, 7]: 3.6; Distribution coefficient (D.C.) [3, 8]: 3.9; Distribution coefficient (D.C.) [3, 9]: 3.2; Distribution coefficient (D.C.) [3, 10]: 3.4; Distribution coefficient (D.C.) [3, 11]: 3.5; Distribution coefficient (D.C.) [3, 12]: 2.4; Distribution coefficient (D.C.) [3, 13]: 1.8; Distribution coefficient (D.C.) [3, 14]: 2.32; Distribution coefficient (D.C.) [3, 15]: 1.3; Distribution coefficient (D.C.) [3, 16]: 1.66; Selectivity (Sel.) [3, 17]: 17.3; Selectivity (Sel.) [3, 18]: 12.2; Selectivity (Sel.) [3, 19]: 16.1; Selectivity (Sel.) [3, 20]: 10.1; Selectivity (Sel.) [3, 21]: 11.0; Selectivity (Sel.) [3, 22]: 7.9; Selectivity (Sel.) [3, 23]: 10.5; Selectivity (Sel.) [3, 24]: 7.2; Selectivity (Sel.) [3, 25]: 7.9; Selectivity (Sel.) [3, 26]: 5.3
